Laboratory results as given in PubChem BioAssay AID2060483 (Molecular Pharmacology Branch, DTP, NCI, 2025).

Test system: K24384-001-R-PDC complex spheroids, viability
Experiment: Anticancer human tumor K24384-001-R-PDC patient-derived pancreatic adenocarcinoma cell line growth inhibition [GQUAD]
Conditions: for IC50: curve of first compound; for viability, T/C: stronger effect = lower value
Method in brief: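 Tumor cells were grown as complex spheroids with HUVEC endothelial cells and mesenchymal stem cells as stroma. G-quadruplex stabilizers were combined with targeted agents over half-log dilutions from near the clinical Cmax, or from 10 microM.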

[1] = second compound 0.0316 µM, first compound 0.0316 µM
[2] = second compound 0.0316 µM, first compound 0.1 µM
[3] = second compound 0.0316 µM, first compound 0.316 µM
[4] = second compound 0.0316 µM, first compound 1 µM
[5] = second compound 0.0316 µM, first compound 3.16 µM
[6] = second compound 0.0316 µM, first compound 10 µM
[7] = second compound 0.1 µM, first compound 0.0316 µM
[8] = second compound 0.1 µM, first compound 0.1 µM
[9] = second compound 0.1 µM, first compound 0.316 µM
[10] = second compound 0.1 µM, first compound 1 µM
[11] = second compound 0.1 µM, first compound 3.16 µM
[12] = second compound 0.1 µM, first compound 10 µM
[13] = second compound 0.316 µM, first compound 0.0316 µM
[14] = second compound 0.316 µM, first compound 0.1 µM
[15] = second compound 0.316 µM, first compound 0.316 µM
[16] = second compound 0.316 µM, first compound 1 µM
[17] = second compound 0.316 µM, first compound 3.16 µM
[18] = second compound 0.316 µM, first compound 10 µM
[19] = second compound 1 µM, first compound 0.0316 µM
[20] = second compound 1 µM, first compound 0.1 µM
[21] = second compound 1 µM, first compound 0.316 µM
[22] = second compound 1 µM, first compound 1 µM
[23] = second compound 1 µM, first compound 3.16 µM
[24] = second compound 1 µM, first compound 10 µM
[25] = second compound 3.16 µM, first compound 0.0316 µM
[26] = second compound 3.16 µM, first compound 0.1 µM
[27] = second compound 3.16 µM, first compound 0.316 µM
[28] = second compound 3.16 µM, first compound 1 µM
[29] = second compound 3.16 µM, first compound 3.16 µM
[30] = second compound 3.16 µM, first compound 10 µM
[31] = second compound 10 µM, first compound 0.0316 µM
[32] = second compound 10 µM, first compound 0.1 µM
[33] = second compound 10 µM, first compound 0.316 µM
[34] = second compound 10 µM, first compound 1 µM
[35] = second compound 10 µM, first compound 3.16 µM
[36] = second compound 10 µM, first compound 10 µM
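Note: spheroids exposed to compounds for seven days.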

C=CCn1c(=O)c2cnc(Nc3ccc(N4CCN(C)CC4)cc3)nc2n1-c1cccc(C(C)(C)O)n1 + Cc1[nH]c2ccc(F)cc2c1-c1nc2c3cccnc3c3ncccc3c2[nH]1
IC50 (second compound 0.0316 µM): 436 nM
IC50 (second compound 0.1 µM): 285 nM
IC50 (second compound 0.316 µM): 420 nM
IC50 (second compound 1 µM): 241 nM
IC50 (second compound 3.16 µM): 192 nM
IC50 (second compound 10 µM): 159 nM
viability, T/C [1]: 94.8%
viability, T/C [2]: 77.8%
viability, T/C [3]: 63.1%
viability, T/C [4]: 19.3%
viability, T/C [5]: 14.9%
viability, T/C [6]: 16.6%
viability, T/C [7]: 98.7%
viability, T/C [8]: 95%
viability, T/C [9]: 45.5%
viability, T/C [10]: 19.7%
viability, T/C [11]: 16.8%
viability, T/C [12]: 18.8%
viability, T/C [13]: 89.6%
viability, T/C [14]: 84.5%
viability, T/C [15]: 60.6%
viability, T/C [16]: 17%
viability, T/C [17]: 18.8%
viability, T/C [18]: 15.2%
viability, T/C [19]: 79.5%
viability, T/C [20]: 71.9%
viability, T/C [21]: 43.6%
viability, T/C [22]: 17.2%
viability, T/C [23]: 18.4%
viability, T/C [24]: 16.6%
viability, T/C [25]: 73%
viability, T/C [26]: 63%
viability, T/C [27]: 40%
viability, T/C [28]: 13.6%
viability, T/C [29]: 21.1%
viability, T/C [30]: 19.1%
viability, T/C [31]: 79%
viability, T/C [32]: 53.2%
viability, T/C [33]: 46.2%
viability, T/C [34]: 16.3%
viability, T/C [35]: 14.5%
viability, T/C [36]: 17.1%

COc1ncnc(C2CC2)c1-c1ncc2cnn(Cc3ccc(-c4nc(C(F)(F)F)cn4C(C)C)cc3)c2n1 + Cc1[nH]c2ccc(F)cc2c1-c1nc2c3cccnc3c3ncccc3c2[nH]1
IC50 (second compound 0.0316 µM): > 10000 nM
IC50 (second compound 0.1 µM): > 10000 nM
IC50 (second compound 0.316 µM): > 10000 nM
IC50 (second compound 1 µM): > 10000 nM
IC50 (second compound 3.16 µM): > 10000 nM
IC50 (second compound 10 µM): > 10000 nM
viability, T/C [1]: 106%
viability, T/C [2]: 109%
viability, T/C [3]: 122%
viability, T/C [4]: 97.5%
viability, T/C [5]: 104%
viability, T/C [6]: 128%
viability, T/C [7]: 98.4%
viability, T/C [8]: 98.7%
viability, T/C [9]: 103%
viability, T/C [10]: 85.5%
viability, T/C [11]: 122%
viability, T/C [12]: 134%
viability, T/C [13]: 90.8%
viability, T/C [14]: 107%
viability, T/C [15]: 107%
viability, T/C [16]: 95.6%
viability, T/C [17]: 96.7%
viability, T/C [18]: 118%
viability, T/C [19]: 86.3%
viability, T/C [20]: 96.8%
viability, T/C [21]: 95.8%
viability, T/C [22]: 104%
viability, T/C [23]: 95.2%
viability, T/C [24]: 95.7%
viability, T/C [25]: 81.8%
viability, T/C [26]: 89.3%
viability, T/C [27]: 73.2%
viability, T/C [28]: 88.7%
viability, T/C [29]: 95.1%
viability, T/C [30]: 84.1%
viability, T/C [31]: 72.5%
viability, T/C [32]: 102%
viability, T/C [33]: 64.3%
viability, T/C [34]: 73.1%
viability, T/C [35]: 96.1%
viability, T/C [36]: 75.5%

Cc1[nH]c2ccccc2c1CCNCc1ccc(/C=C/C(=O)NO)cc1 + Cc1[nH]c2ccc(F)cc2c1-c1nc2c3cccnc3c3ncccc3c2[nH]1
IC50 (second compound 0.0316 µM): 139 nM
IC50 (second compound 0.1 µM): 138 nM
IC50 (second compound 0.316 µM): 121 nM
IC50 (second compound 1 µM): 124 nM
IC50 (second compound 3.16 µM): 128 nM
IC50 (second compound 10 µM): 134 nM
viability, T/C (second compound 0.0316 µM, first compound 0.000999 µM): 103%
viability, T/C (second compound 0.0316 µM, first compound 0.00316 µM): 111%
viability, T/C (second compound 0.0316 µM, first compound 0.00999 µM): 119%
viability, T/C [1]: 103%
viability, T/C (second compound 0.0316 µM, first compound 0.0999 µM): 67.9%
viability, T/C [3]: 5.6%
viability, T/C (second compound 0.1 µM, first compound 0.000999 µM): 99.1%
viability, T/C (second compound 0.1 µM, first compound 0.00316 µM): 95.2%
viability, T/C (second compound 0.1 µM, first compound 0.00999 µM): 98.7%
viability, T/C [7]: 99.6%
viability, T/C (second compound 0.1 µM, first compound 0.0999 µM): 66.7%
viability, T/C [9]: 7.11%
viability, T/C (second compound 0.316 µM, first compound 0.000999 µM): 95%
viability, T/C (second compound 0.316 µM, first compound 0.00316 µM): 92.9%
viability, T/C (second compound 0.316 µM, first compound 0.00999 µM): 101%
viability, T/C [13]: 103%
viability, T/C (second compound 0.316 µM, first compound 0.0999 µM): 58.6%
viability, T/C [15]: 5.93%
viability, T/C (second compound 1 µM, first compound 0.000999 µM): 91.3%
viability, T/C (second compound 1 µM, first compound 0.00316 µM): 91.8%
viability, T/C (second compound 1 µM, first compound 0.00999 µM): 124%
viability, T/C [19]: 118%
viability, T/C (second compound 1 µM, first compound 0.0999 µM): 60.1%
viability, T/C [21]: 7.14%
viability, T/C (second compound 3.16 µM, first compound 0.000999 µM): 81.3%
viability, T/C (second compound 3.16 µM, first compound 0.00316 µM): 87.7%
viability, T/C (second compound 3.16 µM, first compound 0.00999 µM): 77.3%
viability, T/C [25]: 94.4%
viability, T/C (second compound 3.16 µM, first compound 0.0999 µM): 61.1%
viability, T/C [27]: 8.67%
viability, T/C (second compound 10 µM, first compound 0.000999 µM): 77.2%
viability, T/C (second compound 10 µM, first compound 0.00316 µM): 72.9%
viability, T/C (second compound 10 µM, first compound 0.00999 µM): 77.2%
viability, T/C [31]: 118%
viability, T/C (second compound 10 µM, first compound 0.0999 µM): 65.4%
viability, T/C [33]: 5.58%

O=C(NO)c1cnc(N2CCN(S(=O)(=O)c3ccc4ccccc4c3)CC2)nc1 + Cc1[nH]c2ccc(F)cc2c1-c1nc2c3cccnc3c3ncccc3c2[nH]1
IC50 (second compound 0.0316 µM): 618 nM
IC50 (second compound 0.1 µM): 671 nM
IC50 (second compound 0.316 µM): 787 nM
IC50 (second compound 1 µM): 1050 nM
IC50 (second compound 3.16 µM): 871 nM
IC50 (second compound 10 µM): 858 nM
viability, T/C [1]: 109%
viability, T/C [2]: 105%
viability, T/C [3]: 87.7%
viability, T/C [4]: 23.1%
viability, T/C [5]: 0.14%
viability, T/C [6]: 0.17%
viability, T/C [7]: 96.6%
viability, T/C [8]: 103%
viability, T/C [9]: 79.2%
viability, T/C [10]: 35%
viability, T/C [11]: 0.16%
viability, T/C [12]: 0.15%
viability, T/C [13]: 102%
viability, T/C [14]: 94.5%
viability, T/C [15]: 88.4%
viability, T/C [16]: 40.5%
viability, T/C [17]: 0.1%
viability, T/C [18]: 0.12%
viability, T/C [19]: 105%
viability, T/C [20]: 107%
viability, T/C [21]: 101%
viability, T/C [22]: 52.3%
viability, T/C [23]: 0.16%
viability, T/C [24]: 0.12%
viability, T/C [25]: 75.6%
viability, T/C [26]: 110%
viability, T/C [27]: 88.7%
viability, T/C [28]: 44.7%
viability, T/C [29]: 0.18%
viability, T/C [30]: 0.14%
viability, T/C [31]: 71.5%
viability, T/C [32]: 95.8%
viability, T/C [33]: 82.7%
viability, T/C [34]: 44.9%
viability, T/C [35]: 0.22%
viability, T/C [36]: 0.17%
